This is an account of results in patent US7045343B2, “Sterilization indicator test packs” (3M Innovative Properties Company, priority 1998, dated 2006).

Assay [1] has as its system enzyme associated with Bacillus stearothermophilus spores. Description: Rapid enzyme fluorescence readout of dual rapid readout indicators after prevacuum steam sterilization. Format: biochemical. Particulars: Example 4, 4-pulse prevacuum steam 121° C., 7–18 min. The method, boiled down:
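This is a rapid enzyme test in which spore-associated enzyme activity is detected by fluorescence. Spores coated with chemicals were dried on 5×25 mm paper strips for 16 hours at 37° C. They were loaded into indicators that carried 4-methylumbelliferyl-alpha-D-glucoside substrate, with untreated spores serving as controls. After 4-pulse prevacuum steam exposure at 121° C, with vacuum at 0.075–0.085 bar, the substrate ampoules were crushed and the indicators were incubated at 60° C and read with an autoreader.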

For assay [2] the test system is unchanged. Description: Rapid enzyme fluorescence readout of indicators after hydrogen peroxide plasma sterilization. In kind it is biochemical. The conditions noted are these: for FLUORESCENCE - PERCENT POSITIVE 1 HR / FLUORESCENCE - PERCENT POSITIVE 2 HR / FLUORESCENCE - PERCENT POSITIVE 3 HR / FLUORESCENCE - PERCENT POSITIVE 4 HR / FLUORESCENCE - PERCENT POSITIVE 5 HR: 1–22 min diffusion. The method, boiled down:
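Indicators with a TYVEK closure held spores coated with various chemicals and were exposed to hydrogen peroxide plasma at 45–55 °C: 6–7 mg/ml chamber peroxide, diffusing 1–22 min at 6–10 Torr. Enzyme fluorescence was read hourly for 5 h at 60 °C. Growth was scored visually as a purple-to-yellow change after 168 h.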

Assay [3] relates to Bacillus stearothermophilus spores. Description: Spore outgrowth (color change) of indicators after hydrogen peroxide plasma sterilization. Format: cell-based. The conditions noted are these: 1–22 min diffusion. As for the experimental part: Sterilization indicators for Examples 6–9 were prepared as described above with the exception that closure member 22 of the sterilization indicator was constructed of TYVEK™ high-density polyethylene fiber material, commercially available from E.I. du Pont de Nemours and Co., Wilmington, Del.
(§1) Sterilization indicators were made as described above with spores that had been coated with each of the chemicals and concentrations listed in Table 6. The indicators were placed in instrument trays and exposed to a hydrogen peroxide plasma sterilization procedure at 45–55° C. in a STERRAD™ 100SI GMP Sterilizer, obtained from Advanced Sterilization Products Co., Irvine, Calif. During the sterilization procedure a vacuum was drawn in the sterilization chamber for 5–6 minutes until the pressure was reduced to 300 mTorr. A 1.8 ml aliquot of an aqueous solution of 58–60% hydrogen peroxide was then injected into the sterilization chamber over a period of about 6 minutes, yielding an empty chamber concentration of […] hydrogen peroxide, and hydrogen peroxide vapor was allowed to diffuse throughout the chamber for 1–22 minutes at 6–10 Torr. A vacuum was then drawn, reducing the pressure to 500 mTorr and removing all detectable hydrogen peroxide vapor from the chamber.
After exposure to the sterilization procedure, the indicators were removed from the sterilizer and the inner containers containing the enzyme substrate and nutrient medium were crushed. The indicators were then incubated at 60° C. and examined for fluorescence every hour for 5 hours using a 3M™ ATTEST™ Model 190 Rapid Autoreader, commercially available from 3M Company, St. Paul, Minn. Additionally, spore growth, as indicated by a color change from purple to yellow, was determined visually after 168 hours of incubation.
The number of growth positive indicators detected after 168 hours of incubation is recorded in Table 6.
as §1, with “7.” for “6.”
as §1, with “8.” for “6.”, “chamber. […]” for “chamber.”

The test system is the same in assay [4]. Description: Spore outgrowth (color change) of indicators after prevacuum steam sterilization. In kind it is cell-based. The conditions noted are these: Example 4, 4-pulse prevacuum steam 121° C., 7–18 min. A digest of the protocol: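 Self-contained indicators held coated spore strips, a polypropylene microfiber barrier and a crushable inner container. That container held peptone, L-alanine, 4-methylumbelliferyl-alpha-D-glucoside and bromocresol purple at pH 7.6. Indicators sat in metal trays in a Getinge sterilizer running pulses of 0.075–0.085 bar vacuum and steam to 1.00 bar at 121° C. Incubation at 60° C followed, and yellow color at 168 hours scored spore outgrowth.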

As for Decaglyceryl Pentaoleate, in assay [1] (50 mg/ml coating), the “FLUORESCENCE - PERCENT POSITIVE 1 HR” value is recorded as 0%, the “FLUORESCENCE - PERCENT POSITIVE 2 HR” value stood at 0%, the “FLUORESCENCE - PERCENT POSITIVE 3 HR” value came out at 18.8% and the “FLUORESCENCE - PERCENT POSITIVE 4 HR” value was determined as 31.3%. Also, in assay [1] (100 mg/ml coating), the “FLUORESCENCE - PERCENT POSITIVE 1 HR” value is 12.5%, the “FLUORESCENCE - PERCENT POSITIVE 2 HR” value is on record as 25.0%, the “FLUORESCENCE - PERCENT POSITIVE 3 HR” value came out at 37.5% and the “FLUORESCENCE - PERCENT POSITIVE 4 HR” value is on record as 45.8%. Moreover, in assay [2] (1–3 hours after exposure), the “accuracy of sterilization indicators compared to indicators made with untreated spores” value is reported as “improved”. In assay [2] (Example 6, 50 mg/ml coating), the “FLUORESCENCE - PERCENT POSITIVE 1 HR” value amounted to 82.4%, the “FLUORESCENCE - PERCENT POSITIVE 2 HR” value was found to be 94.1%, the “FLUORESCENCE - PERCENT POSITIVE 3 HR” value came to 100% and the “FLUORESCENCE - PERCENT POSITIVE 4 HR” value came out at 100%. For the same substance, in assay [2] (Example 6, 50 mg/ml coating), the “FLUORESCENCE - PERCENT POSITIVE 5 HR” value is given as 100%. In assay [3] (Example 6, 50 mg/ml coating), the “NO. GROWTH POSITIVE 168 HR” value came to 17. For the same substance, the “NO. GROWTH POSITIVE 168 HR” value in assay [4] (50 mg/ml coating) was 16. The “NO. GROWTH POSITIVE 168 HR” value in assay [4] (100 mg/ml coating) is on record as 24.
As to Hexaglyceryl Polyricinolate, in assay [1] (50 mg/ml coating), the “FLUORESCENCE - PERCENT POSITIVE 1 HR” value came out at 0%, the “FLUORESCENCE - PERCENT POSITIVE 2 HR” value stood at 13.0%, the “FLUORESCENCE - PERCENT POSITIVE 3 HR” value was determined as 52.2% and the “FLUORESCENCE - PERCENT POSITIVE 4 HR” value was 56.5%. Moreover, in assay [1] (100 mg/ml coating), the “FLUORESCENCE - PERCENT POSITIVE 1 HR” value is 9.7%, the “FLUORESCENCE - PERCENT POSITIVE 2 HR” value is listed as 19.4%, the “FLUORESCENCE - PERCENT POSITIVE 3 HR” value is reported as 32.3% and the “FLUORESCENCE - PERCENT POSITIVE 4 HR” value is 45.2%. In assay [2] (Example 7, 50 mg/ml coating), the “FLUORESCENCE - PERCENT POSITIVE 1 HR” value is on record as 83.3%, the “FLUORESCENCE - PERCENT POSITIVE 2 HR” value was 91.7%, the “FLUORESCENCE - PERCENT POSITIVE 3 HR” value is recorded as 91.7% and the “FLUORESCENCE - PERCENT POSITIVE 4 HR” value is on record as 91.7%. Further, the “FLUORESCENCE - PERCENT POSITIVE 5 HR” value in assay [2] (Example 7, 50 mg/ml coating) is 91.7%. The “NO. GROWTH POSITIVE 168 HR” value in assay [3] (Example 7, 50 mg/ml coating) came out at 12. For the same substance, the “NO. GROWTH POSITIVE 168 HR” value in assay [4] (50 mg/ml coating) was found to be 23. In assay [4] (100 mg/ml coating), the “NO. GROWTH POSITIVE 168 HR” value was 31.
